Test results reported in patent US20070248619A1, “New pharmaceutical composition from natural materials for regulating immunity, its preparation method and use” (priority 2006, published 2007).
Where “and” joins values, the source holds several entries; their conditions need not be identical. Equal values may be shown once.

Legend:
C8166 cells [1] = type: cell-based; settings: C8166, three days, MTT; one value per date of experiment
HIV-1 [2] = settings: HIV-1-infected C8166, three days, MTT
Procedure: 50□1 medium was added into half of the holes on the culture plate and 50□1 diluted supernatant fluid of HIV-1, in which the value of M.O.I was 0.0089, was added into the other half of the holes on the culture plate. At the same time, the blank control holes without the drug (the negative control) were set and the control culture holes with positive drug AZT (the positive control) were set too. They were put into 5%CO2 incubator under 37 °C for three days. The survival rate of cells was determined by MTT method. OD values (595 nm/630 nm) were determined by ELx800ELISA Reader. […] Survival rate of normal cells (%) =OD value of the experimental hole/OD value of negative control hole □ 100%
Protective rate of infected cells (%)=(OD value of the experimental hole—OD value of positive control hole)/(OD value of negative control hole—OD value of positive control hole) □ 100%

HIV-1 [3] = settings: C8166 + HIV-1, M.O.I 0.0089, three days; one value per date of experiment
Procedure: 50□1 diluted supernatant fluid of HIV-1 was added to the mixture and the value of M.O.I was 0.0089. At the same time, the control hole without the drug and the control hole with positive drug AZT were set. They were put into 5%CO2 incubator under 37? for three days. The amount of syncytium was counted under an inverted microscope (100×□) (in five visual fields). IC50, that is, the concentration of the drugs inhibiting 50% syncytium formation, was determined.

C8166 cells [4] = type: cell-based
Procedure: 50□1 medium was added into half of the holes on the culture plate and 50□1 diluted supernatant fluid of HIV-1, in which the value of M.O.I was 0.0089, was added into the other half of the holes on the culture plate. At the same time, the blank control holes without the drug (the negative control) were set and the control culture holes with positive drug AZT (the positive control) were set too. They were put into 5%CO2 incubator under 37 °C for three days. The survival rate of cells was determined by MTT method. OD values (595 nm/630 nm) were determined by ELx800ELISA Reader. The following formulae were used to calculate the survival rate of normal cells caused by the drug and the protective rate of the drug for HIV-1-infected cells. Survival rate of normal cells (%) =OD value of the experimental hole/OD value of negative control hole □ 100%

[5] = Clinical trial in type 2 diabetes patients; type: in vivo, human; settings: 52 cases per group
Text: According to diagnostic criteria of diabetes by WHO(1985), 104 diabetes patients were diagnosed to have type 2 diabetes. Wherein, 56 patients were male and 48 patients were female at average age of […]. All of them had diabetes for […] years. They were divided into two groups at random:
Group A: treatment group administrated the granules of example 1
Group B: control group administrated Micronase (produced by Shandong Boshan Pharmaceutical Factory, Batch: 990917)
Control group: Micronase was orally taken at 30 minutes before meal in three times per day and 2.5 mg(tablet) each time.

SMILES	TC50 (concentration causing the death of 50% the cells) (C8166 cells [1])	IC50 (EC50 of protective effects on infected cells) (HIV-1 [2])	IC50 inhibiting syncytium formation (head prints TC50) (HIV-1 [3])	TC50 obtained by protective experiment (toxic effects on normal cells) (C8166 cells [4])	blood sugar at 2 hours after meal, mean before therapy ([5]; baseline)	fasting blood sugar, mean before therapy ([5]; baseline)	blood sugar at 2 hours after meal, mean after therapy ([5]; therapy for 3 months)	fasting blood sugar, mean after therapy ([5]; therapy for 3 months)
Cc1cn([C@H]2C[C@H](N=[N+]=[N-])[C@@H](CO)O2)c(=O)[nH]c1=O [AZT]	>50 µg/mL	0.15 µg/mL	0.23 µg/mL and 0.18 µg/mL	>50 µg/mL	–	–	–	–
COc1ccc(Cl)cc1C(=O)NCCc1ccc(S(=O)(=O)NC(=O)NC2CCCCC2)cc1 [Micronase]	–	–	–	–	14.67 ± 1.49	9.53 ± 1.46	12.14 ± 2.53	6.53 ± 1.53
